Assay results: patent US9540702B2, “Stabilization of enzymes with stable coenzymes” (Roche Diabetes Care, Inc., priority 2009, dated 2017)

Assays:
[1] = molecular target: glucose dehydrogenase/NAD system (Bacillus subtilis, UniProt P12310); experiment: Photometric glucose determination with test elements containing GlucDH, NAD, mediator and 2,18-phosphomolybdic acid; conditions: glucose in the region of 800 mg/dl; test elements stored 11 weeks at room temperature
Protocol: Various test systems which each contained glucose dehydrogenase, NAD, a mediator and, where appropriate, an optical indicator, were measured photometrically and electrochemically in order to determine glucose.
For photometric measurements four test elements which had each been stored for 11 weeks at room temperature and contained 2,18-phosphomolybdic acid in addition to glucose dehydrogenase, NAD and a mediator, were initially investigated at various glucose concentrations.
The kinetics of the conversion of glucose using the system glucose dehydrogenase, NAD, 1-(3-carboxypropoxy)-5-ethylphenazinium-trifluoromethane sulfonate and 2,18-phosphomolybdic acid at glucose concentrations in the range from 0 to 800 mg/dl is shown in FIG. 14.

[2] = molecular target: glucose dehydrogenase (GlucDH) (Bacillus subtilis, UniProt P12310); experiment: Stability of glucose dehydrogenase with coenzyme in a liquid phase at 50° C.; format: biochemical; conditions: 10 mg/ml GlucDH, 12 mg/ml coenzyme, pH 8.5
glucose dehydrogenase (GlucDH), sequence (P12310 whole entry): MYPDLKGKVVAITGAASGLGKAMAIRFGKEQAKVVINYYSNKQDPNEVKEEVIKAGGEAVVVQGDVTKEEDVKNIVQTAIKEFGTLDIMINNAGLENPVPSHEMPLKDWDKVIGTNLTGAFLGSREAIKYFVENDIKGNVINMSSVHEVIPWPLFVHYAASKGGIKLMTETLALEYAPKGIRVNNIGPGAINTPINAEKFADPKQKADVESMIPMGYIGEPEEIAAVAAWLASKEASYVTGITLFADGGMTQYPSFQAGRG
Protocol: FIGS. 9A and 9B are graphical illustrations of the stability of glucose dehydrogenase in the presence of NAD or cNAD in a liquid phase at 50° C. for a period of 4 days (FIG. 9A) or 14 days (FIG. 9B) with test conditions of 10 mg/ml GlucDH; 12 mg/ml NAD or cNAD; buffer: 0.1 M Tris, 1.2 M NaCl, pH 8.5; temperature 50° C.
After 95 hours at 50° C. the residual activity of glucose dehydrogenase in the presence of the native coenzyme NAD is […], whereas the residual activity of GlucDH in the presence of the artificial coenzyme cNAD is 75% (FIG. 9A). After 336 hours storage at 50° C. the residual activity of the enzyme stabilized with NAD is now only about 1%; a residual activity of still about 70% is observed for the enzyme stored in the presence of cNAD. The corresponding SDS gels also show a change in the GlucDH bands in the presence of the native coenzyme NAD: new bands are seen at higher molar masses and there is a shift in the 30 kDa band.

[3] = molecular target: T1, alcohol dehydrogenase (ADH) (Saccharomyces cerevisiae, UniProt P00330); experiment: Storage of alcohol dehydrogenase detection solution with NAD or cNAD (Tables 1 and 2); format: biochemical, yeast; conditions: 16 mmol/l coenzyme
T1 sequence (P00330 1-348): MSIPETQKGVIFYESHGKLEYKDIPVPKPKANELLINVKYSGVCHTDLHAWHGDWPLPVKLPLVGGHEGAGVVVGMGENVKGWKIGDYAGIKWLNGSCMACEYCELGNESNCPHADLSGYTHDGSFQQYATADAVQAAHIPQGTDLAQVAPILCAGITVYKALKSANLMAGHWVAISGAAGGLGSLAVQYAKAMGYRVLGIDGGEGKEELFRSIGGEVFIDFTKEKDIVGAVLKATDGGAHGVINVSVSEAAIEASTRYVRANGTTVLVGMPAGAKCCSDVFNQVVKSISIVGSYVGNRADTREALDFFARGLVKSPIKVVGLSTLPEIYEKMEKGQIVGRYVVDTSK
Protocol: (§1) cNAD or NAD was added to a detection solution containing alcohol dehydrogenase. These mixtures were stored at 2-8° C. and at 35° C. Subsequently, the stability of alcohol dehydrogenase (ADH) was checked at regular intervals and the residual activity of the enzyme was determined.
If alcohol dehydrogenase is stored together with native NAD or with cNAD for several months at 2-8° C. in a refrigerator, then one observes in the case of […] a considerable decrease in enzyme activity over the entire storage period. Whereas the difference after 2 weeks storage is still slight, there is an approximately 20% higher residual activity of alcohol dehydrogenase after 12 months storage in the presence of 16 mM cNAD compared to a corresponding solution containing 16 mM NAD as the coenzyme.
Accordingly, the residual activity of alcohol dehydrogenase can be increased somewhat in samples that have been stored for 2 weeks at 2-8° C. by increasing the concentration of cNAD.

[4] = molecular target: T1, alcohol dehydrogenase (ADH); experiment: Stability of alcohol dehydrogenase with coenzyme in a liquid phase at 35° C.; format: biochemical, yeast; conditions: 65 hours at 35° C., 5 mg/ml ADH, 50 mg/ml coenzyme, pH 9.0
Protocol: FIG. 12 is a graphical illustration of the stability of alcohol dehydrogenase from yeast in the presence of NAD or cNAD in a liquid phase at 35° C. for a period of 65 hours with test conditions of 5 mg/ml ADH; 50 mg/ml NAD or cNAD; buffer: 75 mM Na4P2O7; glycine, pH 9.0; temperature 35° C.
as §1
The residual activity of alcohol dehydrogenase in the presence of the native coenzyme NAD is at about 6% after 65 hours at 35° C., whereas the residual activity of the enzyme in the presence of the artificial coenzyme cNAD is still at about 60%.

[5] = molecular target: Glucose dehydrogenase mutant2 (Bacillus subtilis, UniProt P12310, A229V/A236S/E170K/Q252L); experiment: Differential scanning calorimetry (DSC) of coenzyme binding; conditions: Tris buffer, pH 8.0; versus absence of NAD (79.1° C.)
Glucose dehydrogenase mutant2, sequence (P12310 whole entry E170K/A229V/A236S/Q252L): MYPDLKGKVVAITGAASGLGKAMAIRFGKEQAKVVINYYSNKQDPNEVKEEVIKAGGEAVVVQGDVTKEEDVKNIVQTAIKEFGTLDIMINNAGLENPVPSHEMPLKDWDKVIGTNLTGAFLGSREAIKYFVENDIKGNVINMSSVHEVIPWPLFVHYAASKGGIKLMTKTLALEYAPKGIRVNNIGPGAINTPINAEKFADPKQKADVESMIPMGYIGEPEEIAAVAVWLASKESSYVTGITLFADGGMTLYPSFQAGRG

glucose dehydrogenase/NAD system, sequence (P12310 whole entry): as the sequence (P12310 whole entry) above

Structure (SMILES)	reflectance of the measured sample [1]	residual activity of glucose dehydrogenase ([2]; 95 hours at 50° C.)	residual activity of glucose dehydrogenase ([2]; 336 hours at 50° C.)	ADH activity after 2 weeks at 2-8° C. ([3]; 2 weeks at 2-8° C.)	ADH activity after 3 months at 2-8° C. ([3]; 3 months at 2-8° C.)	ADH activity after 7.5 months at 2-8° C. ([3]; 7.5 months at 2-8° C.)	ADH activity after 10 months at 2-8° C. ([3]; 10 months at 2-8° C.)	ADH activity after 12 months at 2-8° C. ([3]; 12 months at 2-8° C.)	ADH activity % of weighed amount (initial value) ([3]; initial value)	residual activity of alcohol dehydrogenase [4]	TM shift on binding of ligand [5]
CC[n+]1c2ccccc2nc2c(OCCCC(=O)O)cccc21.O=S(=O)([O-])C(F)(F)F [1-(3-carboxy-propoxy)-5-ethylphenazinium-trifluoromethane sulfonate]	about 20%										
NC(=O)c1ccc[n+]([C@@H]2O[C@H](COP(=O)([O-])OP(=O)(O)OC[C@H]3O[C@@H](n4cnc5c(N)ncnc54)[C@H](O)[C@@H]3O)[C@@H](O)[C@H]2O)c1 [NAD, nicotinamide adenine dinucleotide, reference compound]		> 5%	about 1%	96.9 % of initial value	92.1 % of initial value	80.2 % of initial value	70.3 % of initial value	60.5 % of initial value	85.2 % of weighed amount	about 6%	more than 1.5 °C
Cl.O=Nc1ccc(N(CO)CO)cc1 [[(4-nitroso-phenyl)imino]dimethanol hydrochloride]	about 20%										
